Several values for one entry are separate records, joined by “and”; a condition that tells them apart may be missing. Equal values may be shown once.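 Growth conditions: 96-well plates. Treatment: test compound, 48 hours, 5 concentrations. Analysis: linear interpolation between bracketing concentrations; unreached endpoints set to highest concentration. The concentration for 50% growth inhibition is given as GI50. The concentration for full growth arrest is given as TGI.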
Legend:
Assay in all cases: NCI anticancer screen, dose series, 48 h
COLO 205 colon = tested on: COLO 205 colon
HT29 colon = tested on: HT29 colon
K-562 leukemia = tested on: K-562 leukemia
OVCAR-8 ovarian = tested on: OVCAR-8 ovarian
SF-268 CNS = tested on: SF-268 CNS
SK-MEL-2 melanoma = tested on: SK-MEL-2 melanoma
SK-MEL-28 melanoma = tested on: SK-MEL-28 melanoma
M14 melanoma = tested on: M14 melanoma
OVCAR-4 ovarian = tested on: OVCAR-4 ovarian
MDA-MB-231 breast = tested on: MDA-MB-231 breast

| SMILES | TGI (COLO 205 colon) [µM] | TGI (HT29 colon) | TGI (K-562 leukemia) | TGI (OVCAR-8 ovarian) | TGI (SF-268 CNS) | TGI (SK-MEL-2 melanoma) | TGI (SK-MEL-28 melanoma) | TGI (M14 melanoma) | TGI (OVCAR-4 ovarian) [µM] | GI50 (COLO 205 colon) [µM] | GI50 (K-562 leukemia) | GI50 (M14 melanoma) [µM] | GI50 (MDA-MB-231 breast) [µM] | TGI (MDA-MB-231 breast) [µM] | GI50 (OVCAR-8 ovarian) | GI50 (SF-268 CNS) [µM] | GI50 (SK-MEL-2 melanoma) [µM] | GI50 (HT29 colon) [µM] | GI50 (OVCAR-4 ovarian) [µM] | GI50 (SK-MEL-28 melanoma) [µM] |
| --- | --- | --- | --- | --- | --- | --- | --- | --- | --- | --- | --- | --- | --- | --- | --- | --- | --- | --- | --- | --- |
| CCC12CCCN(Cc3ccccc3)C1c1c(n(C)c3ccccc13)CC2 (stereo not drawn) | > 253 | > 253 µM | > 253 µM | > 253 µM | > 253 µM | > 253 µM | > 253 µM |  |  |  |  |  |  |  |  |  |  |  |  |  |
| O=C1CCC2(c3ccc(Cl)cc3)Nc3ncccc3N12 (stereo not drawn) | > 100 | > 100 µM | > 100 µM | > 100 µM | > 100 µM | > 100 µM | > 100 µM | > 100 µM | > 100 |  |  |  |  |  |  |  |  |  |  |  |
| COc1ccc2occ(CCC(=O)O)c2c1 | > 100 | > 100 µM | > 100 µM | > 100 µM |  |  | > 100 µM | > 100 µM | > 100 |  |  |  |  |  |  |  |  |  |  |  |
| O=C(Nc1ccn(CCO)c(=O)n1)c1ccccc1 | > 100 | > 100 µM | > 100 µM | > 100 µM | > 100 µM | > 100 µM | > 100 µM | > 100 µM | > 100 |  |  |  |  |  |  |  |  |  |  |  |
| O=[N+]([O-])c1cccc(C2=NN(c3ccccc3)C[N+](c3ccc(Br)cc3)=N2)c1 | > 100 | > 100 µM | > 100 µM | > 100 µM | > 100 µM | > 100 µM | > 100 µM | > 100 µM | > 100 |  |  |  |  |  |  |  |  |  |  |  |
| CC(C)(C)NNC(=O)CCn1[nH]c(=O)c(Cl)c(Cl)c1=O | > 100 | > 100 µM | > 100 µM | > 100 µM | > 100 µM | > 100 µM | > 100 µM | > 100 µM | > 100 |  |  |  |  |  |  |  |  |  |  |  |
| CC1=C(C(=O)Nc2ccc(F)c(Cl)c2)C(c2ccccc2O)NC(=S)N1 (stereo not drawn) | > 50 |  | > 50 µM | > 50 µM | > 50 µM | > 50 µM |  | > 50 µM |  | > 50 | 22 µM | > 50 | > 50 | > 50 | 12.9 µM | 9.43 | 23.6 |  |  |  |
| CCOC(=O)c1cnc2c(ccc3[nH]n(C)nc32)c1=O | > 100 | > 100 µM | > 100 µM | > 100 µM | > 100 µM | 46.1 µM | > 100 µM | > 100 µM |  |  |  |  |  |  |  |  |  |  |  |  |
| CCCCCCCCCCCCCC(=O)OCC(C[As](=O)(O)O)OC(=O)CCCCCCCCCCCCC (stereo not drawn) |  | > 100 µM | > 100 µM | > 100 µM | > 100 µM | > 100 µM | > 100 µM | > 100 µM | > 100 |  |  |  |  |  |  |  |  |  |  |  |
| CC(C)CCC1CC2C(=O)N(c3ccccc3)C(=O)C2c2[nH]c3ccccc3c21 (stereo not drawn) | 7.08 | 11 µM | 10.7 µM | 11.7 µM | 13.5 µM |  | 20 µM | 4.04 µM | 20.7 |  |  |  |  |  |  |  |  |  |  |  |
| Clc1ccc2c(c1)[nH]c1c2nc2ccccn21 |  | 45.4 µM and 28.9 µM | 74.8 µM and 37.3 µM | > 100 µM and 33.1 µM | 87.7 µM and 37.1 µM | > 100 µM and 17.8 µM | 62.4 µM and 31.3 µM | 64.5 µM and 36.9 µM |  |  | 23.9 µM and 3.96 µM |  |  |  | 44.5 µM and 17 µM |  |  |  |  |  |
| CC12C/C(=C\c3ccccc3)C(=O)C3C1CCCC32 | > 100 | > 100 µM | > 100 µM | > 100 µM | > 100 µM | > 100 µM | > 100 µM | > 100 µM | > 100 |  |  |  |  |  |  |  |  |  |  |  |
| COC(=O)C(C(=O)c1ccccc1)C(C(=O)C(=O)Nc1ccc(OC)cc1OC)C(=O)C(=O)c1ccc(C)cc1 (stereo not drawn) | > 100 | > 100 µM | > 100 µM | > 100 µM | > 100 µM | > 100 µM | > 100 µM | > 100 µM | > 100 |  |  |  |  |  |  |  |  |  |  |  |
| CC(C)C(CCl)NC(=O)c1cccc(C(=O)N[C@H](CCl)C(C)C)n1 (stereo in doubt) | > 100 | > 100 µM | > 100 µM |  | > 100 µM |  | > 100 µM | > 100 µM | > 100 |  |  |  |  |  |  |  |  |  |  |  |
| O=C1c2ccccc2C(=O)N1CCn1ccc(NC(c2ccccc2)(c2ccccc2)c2ccccc2)nc1=O | 31.4 | 30.5 µM | 63.8 µM | > 100 µM | 45.3 µM | 43.2 µM | 32.1 µM | 43 µM | 59.2 |  |  |  |  |  |  |  |  |  |  |  |
| N.N.N.N.O=C([O-])CCl.O=C([O-])CCl.[Co+3].[O-][Cl+3]([O-])([O-])[O-] | > 100 | > 100 µM | > 100 µM | > 100 µM | > 100 µM | > 100 µM | > 100 µM | > 100 µM | > 100 | > 100 | > 100 µM | > 100 |  |  | > 100 µM | > 100 | > 100 | > 100 | > 100 | > 100 |
| Cc1cn2c(=O)c3ncn(C4OC(CO)C(O)C4O)c3n(C)c2n1 (stereo not drawn) | > 100 | > 100 µM | > 100 µM | > 100 µM | > 100 µM | > 100 µM | > 100 µM | > 100 µM | > 100 |  |  |  |  |  |  |  |  |  |  |  |
